Read-outs that look alike come from different tables or passages of the source.
How the values were obtained:
MARTXVc CPD [1] = conditions: cited from earlier work
MARTXVc CPD [2] = format: biochemical, Vibrio cholerae; conditions: read-out: AC50 (InsP6 for 50% cleavage)
[3] = target: V. vulnificus CMCP6 VV20479 MARTX CPD (Vibrio vulnificus, UniProt A0A2S3R7M0); format: biochemical; conditions: 10 µM InsP6
[4] = system: P. luminescens TTO1 MARTX CPDs (Plu3217, Plu3324, Plu1341, Plu1344); format: biochemical, Photorhabdus luminescens

SMILES	potency as activator of the CPD (MARTXVc CPD [1])	AC50 (MARTXVc CPD [2])	InsP6-dependent autoprocessing [3]	InsP6-dependent autoprocessing [4]	AC50 (MARTXVc CPD [1]; read-out: AC50 (InsP6 for half-maximal autocleavage))
Nc1nc2c(ncn2[C@@H]2O[C@H](COP(=O)(O)OP(=O)(O)OP(O)(O)=S)[C@@H](O)[C@H]2O)c(=O)[nH]1 [GTPγS, guanosine 5′-[γ-thio]triphosphate]	much less potent activator	–	–	–	–
O=P(O)(O)OC1C(OP(=O)(O)O)C(OP(=O)(O)O)C(OP(=O)(O)O)C(OP(=O)(O)O)C1OP(=O)(O)O (centres unmarked) [InsP6, inositol hexakisphosphate]	–	0.76 ± 0.27 nM	underwent InsP6-dependent autoprocessing	underwent InsP6-dependent autoprocessing	0.91 ± 0.1 nM
